The numbers were not newly measured in patent publication US12234492B2, “Microorganism for fermentative production of 2-phenylethanol from gaseous substrates” (LanzaTech, Inc., priority 2020, dated 2025), which cites them from elsewhere.

For one data set, the system named is Staphylococcus aureus. Conditions: range given jointly for S. aureus and E. faecium; Cone et al. 1990.
For the next data set, the system named is Enterococcus faecium. The conditions noted are these: range given jointly for S. aureus and E. faecium; Cone et al. 1990.

Where “and” joins values, the source holds several entries; their conditions need not be identical. Equal values may be shown once.

Consider `OCCc1ccccc1` [2-PE, 2-phenylethanol], for which the growth inhibitory level with Staphylococcus aureus was 26-43 mM and 3.2-5.3 g/L; in the data set on Enterococcus faecium it was 26-43 mM and 3.2-5.3 g/L.
